Assay results as given in US20160326142A1, “PYRAZOLE CARBOXAMIDE COMPOUNDS, COMPOSITIONS AND METHODS OF USE” (Genentech, Inc., priority 2012, published 2016).

What follows are molecules tested against T1, ITK (Homo sapiens, UniProt Q08881) (assay: ITK enzyme assay (Caliper or LCMS peptide phosphorylation)). Conditions: purified ITK (Invitrogen PV3875), 20 μM ATP, Ki by Morrison's quadratic equation.
T1 construct: purchased Invitrogen PV3875
T1 sequence (Q08881 1-620): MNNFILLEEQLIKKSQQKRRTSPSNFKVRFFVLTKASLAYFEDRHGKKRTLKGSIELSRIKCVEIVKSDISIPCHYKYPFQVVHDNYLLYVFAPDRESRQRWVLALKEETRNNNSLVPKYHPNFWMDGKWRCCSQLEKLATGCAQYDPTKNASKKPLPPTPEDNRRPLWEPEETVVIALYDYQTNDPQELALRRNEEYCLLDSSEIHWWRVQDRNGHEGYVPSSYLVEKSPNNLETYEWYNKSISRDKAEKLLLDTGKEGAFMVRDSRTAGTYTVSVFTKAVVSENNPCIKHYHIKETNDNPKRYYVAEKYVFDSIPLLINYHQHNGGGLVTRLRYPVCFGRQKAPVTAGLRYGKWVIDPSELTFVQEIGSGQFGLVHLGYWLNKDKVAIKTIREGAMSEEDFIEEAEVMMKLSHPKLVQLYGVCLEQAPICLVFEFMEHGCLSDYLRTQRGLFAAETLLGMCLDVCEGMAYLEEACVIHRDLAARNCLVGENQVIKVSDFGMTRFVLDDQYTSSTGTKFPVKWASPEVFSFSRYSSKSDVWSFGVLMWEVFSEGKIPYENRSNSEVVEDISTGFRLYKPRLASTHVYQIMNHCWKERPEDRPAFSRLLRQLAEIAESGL
Format: biochemical
Method: The ability of purified ITK (Invitrogen PV3875) to catalyze peptide phosphorylation is monitored using a Caliper LabChip 3000 microfluidic unit (Caliper assay) or by liquid chromatography-mass spectrometry (LCMS) using a Waters Acquity system (LCMS assay). […] Reactions are quenched by the addition of 2,2′,2″,2′″-(ethane-1,2-diyldinitrilo)tetraacetic acid (50 mM final). Non-phosphorylated substrate and phosphorylated product peptides are separated and quantified using a Caliper LabChip 3000 instrument. […] Reactions are quenched by the addition of trichloroacetic acid (5% v/v final). Non-phosphorylated substrate and phosphorylated product peptides are separated by ultra performance LC and detected by a coupled triple quadrupole MS device applying multiple reaction monitoring (MRM) for quantification. The area of the MRM-extracted mass signal is used to assess the inhibition by test compounds. Equilibrium dissociation constant (Ki) values for ITK inhibitors are calculated from plots of activity vs. inhibitor concentration using Morrison's quadratic equation that accounts for the potential of tight binding, and by also applying the conversion factor that accounts for competitive inhibition and the concentration of ATP used in the assay relative to its apparent Michaelis constant (Km,app).

Row | Ki [nM] | Structure (SMILES)
1 | 6.2 | CN1CCC(C(c2ccccc2)n2cc(NC(=O)c3n[nH]c4c3CCC(C)(C)C4)cn2)CC1 (single isomer, unassigned) [Example 43b, 6,6-dimethyl-N-(1-((1-methylpiperidin-4-yl)(phenyl)methyl)-1H-pyrazol-4-yl)-4,5,6,7-tetrahydro-1H-indazole-3-carboxamide]
2 | 2 | Cc1cccc(C(C2CNC2)n2cc(NC(=O)c3n[nH]c4c3CCC(C)(C)C4)cn2)c1 (single isomer, unassigned) [Example 47a, N-(1-(azetidin-3-yl(m-tolyl)methyl)-1H-pyrazol-4-yl)-6,6-dimethyl-4,5,6,7-tetrahydro-1H-indazole-3-carboxamide]
3 | 9 | Cc1cccc(C(C2CNC2)n2cc(NC(=O)c3n[nH]c4c3CCC(C)(C)C4)cn2)c1 (single isomer, unassigned) [Example 47b, N-(1-(azetidin-3-yl(m-tolyl)methyl)-1H-pyrazol-4-yl)-6,6-dimethyl-4,5,6,7-tetrahydro-1H-indazole-3-carboxamide]
4 | 2 | CC1(C)CCc2c(C(=O)Nc3cnn(C(c4ccccc4)C4(F)CNC4)c3)n[nH]c2C1 (single isomer, unassigned) [Example 49b, N-(1-((3-fluoroazetidin-3-yl)(phenyl)methyl)-1H-pyrazol-4-yl)-6,6-dimethyl-4,5,6,7-tetrahydro-1H-indazole-3-carboxamide]
5 | 5 | CC1(C)CCc2c(C(=O)Nc3cnn(C(CO)c4ccccc4)c3)n[nH]c2C1 (single isomer, unassigned) [Example 53a, N-(1-(2-hydroxy-1-phenylethyl)-1H-pyrazol-4-yl)-6,6-dimethyl-4,5,6,7-tetrahydro-1H-indazole-3-carboxamide]
6 | 29 | CC1(C)CCc2c(C(=O)Nc3cnn(C(CO)c4ccccc4)c3)n[nH]c2C1 (single isomer, unassigned) [Example 53b, N-(1-(2-hydroxy-1-phenylethyl)-1H-pyrazol-4-yl)-6,6-dimethyl-4,5,6,7-tetrahydro-1H-indazole-3-carboxamide]
7 | 1 | CCC(c1cccnc1)n1cc(NC(=O)c2n[nH]c3c2CCC(C)(C)C3)cn1 (single isomer, unassigned) [Example 54a, 6,6-dimethyl-N-(1-(1-(pyridin-3-yl)propyl)-1H-pyrazol-4-yl)-4,5,6,7-tetrahydro-1H-indazole-3-carboxamide]
8 | 6 | CCC(c1cccnc1)n1cc(NC(=O)c2n[nH]c3c2CCC(C)(C)C3)cn1 (single isomer, unassigned) [Example 54b, 6,6-dimethyl-N-(1-(1-(pyridin-3-yl)propyl)-1H-pyrazol-4-yl)-4,5,6,7-tetrahydro-1H-indazole-3-carboxamide]
9 | 5 | CC1(C)CCc2c(C(=O)Nc3cnn(C(c4ccccc4)C(C)(C)O)c3)n[nH]c2C1 (single isomer, unassigned) [Example 55a, N-(1-(2-hydroxy-2-methyl-1-phenylpropyl)-1H-pyrazol-4-yl)-6,6-dimethyl-4,5,6,7-tetrahydro-1H-indazole-3-carboxamide]

Second part, the molecule before the results:

Row | Structure (SMILES) | Ki [nM]
10 | CC1(C)CCc2c(C(=O)Nc3cnn(C(c4ccccc4)C4(F)CCNCC4)c3)n[nH]c2C1 (single isomer, unassigned) [Example 44a, N-(1-((4-fluoropiperidin-4-yl)(phenyl)methyl)-1H-pyrazol-4-yl)-6,6-dimethyl-4,5,6,7-tetrahydro-1H-indazole-3-carboxamide] | 6
11 | CC1(C)CCc2c(C(=O)Nc3cnn(C(c4ccccc4)C4(F)CCNCC4)c3)n[nH]c2C1 (single isomer, unassigned) [Example 44b, N-(1-((4-fluoropiperidin-4-yl)(phenyl)methyl)-1H-pyrazol-4-yl)-6,6-dimethyl-4,5,6,7-tetrahydro-1H-indazole-3-carboxamide] | 0.2
12 | CC1(C)CCc2c(C(=O)Nc3cnn(C(c4ccccc4)C4CN(S(C)(=O)=O)C4)c3)n[nH]c2C1 (single isomer, unassigned) [Example 45a, 6,6-dimethyl-N-(1-((1-(methylsulfonyl)azetidin-3-yl)(phenyl)methyl)-1H-pyrazol-4-yl)-4,5,6,7-tetrahydro-1H-indazole-3-carboxamide] | 370
13 | CC1(C)CCc2c(C(=O)Nc3cnn(C(c4ccccc4)C4CN(S(C)(=O)=O)C4)c3)n[nH]c2C1 (single isomer, unassigned) [Example 45b, 6,6-dimethyl-N-(1-((1-(methylsulfonyl)azetidin-3-yl)(phenyl)methyl)-1H-pyrazol-4-yl)-4,5,6,7-tetrahydro-1H-indazole-3-carboxamide] | 48
14 | CC1(C)CCc2c(C(=O)Nc3cnn(C(c4ccccc4)C4(F)CNC4)c3)n[nH]c2C1 (single isomer, unassigned) [Example 49a, N-(1-((3-fluoroazetidin-3-yl)(phenyl)methyl)-1H-pyrazol-4-yl)-6,6-dimethyl-4,5,6,7-tetrahydro-1H-indazole-3-carboxamide] | 10
15 | O=C(Nc1cnn(Cc2ccccc2)c1)c1n[nH]c2c1CCC1(CCCO1)C2 (single isomer, unassigned) [Example 50a, N-(1-benzyl-1H-pyrazol-4-yl)-1′,4,4′,5,5′,7′-hexahydro-3H-spiro[furan-2,6′-indazole]-3′-carboxamide] | 260
16 | O=C(Nc1cnn(Cc2ccccc2)c1)c1n[nH]c2c1CCC1(CCCO1)C2 (single isomer, unassigned) [Example 50b, N-(1-benzyl-1H-pyrazol-4-yl)-1′,4,4′,5,5′,7′-hexahydro-3H-spiro[furan-2,6′-indazole]-3′-carboxamide] | 620
17 | CC1(O)CCc2c(C(=O)Nc3cnn(Cc4ccccc4)c3)n[nH]c2C1 (single isomer, unassigned) [Example 51a, N-(1-benzyl-1H-pyrazol-4-yl)-6-hydroxy-6-methyl-4,5,6,7-tetrahydro-1H-indazole-3-carboxamide] | 160
18 | CN(C)CCC(c1ccccc1)n1cc(NC(=O)c2n[nH]c3c2CC2CC2(C)C3)cn1 (single isomer, unassigned) [Example 52a, N-(1-(3-(dimethylamino)-1-phenylpropyl)-1H-pyrazol-4-yl)-5a-methyl-1,4,4a,5,5a,6-hexahydrocyclopropa[f]indazole-3-carboxamide] | 0.2
19 | CN(C)CCC(c1ccccc1)n1cc(NC(=O)c2n[nH]c3c2CC2CC2(C)C3)cn1 (single isomer, unassigned) [Example 52b, N-(1-(3-(dimethylamino)-1-phenylpropyl)-1H-pyrazol-4-yl)-5a-methyl-1,4,4a,5,5a,6-hexahydrocyclopropa[f]indazole-3-carboxamide] | 17
20 | CN(C)CCC(c1ccccc1)n1cc(NC(=O)c2n[nH]c3c2CC2CC2(C)C3)cn1 (single isomer, unassigned) [Example 52c, N-(1-(3-(dimethylamino)-1-phenylpropyl)-1H-pyrazol-4-yl)-5a-methyl-1,4,4a,5,5a,6-hexahydrocyclopropa[f]indazole-3-carboxamide] | 2
21 | CN(C)CCC(c1ccccc1)n1cc(NC(=O)c2n[nH]c3c2CC2CC2(C)C3)cn1 (single isomer, unassigned) [Example 52d, N-(1-(3-(dimethylamino)-1-phenylpropyl)-1H-pyrazol-4-yl)-5a-methyl-1,4,4a,5,5a,6-hexahydrocyclopropa[f]indazole-3-carboxamide] | 100
